From patent US8618163B2, “Derivatives of cycloalkyl- and cycloalkenyl-1,2-dicarboxylic acid compounds having formyl peptide receptor like-1 (FPRL-1) agonist or antagonist activity” (Allergan, Inc., priority 2010, dated 2013)
pEC50: −log10 of the molar value. Like-named read-outs stand apart in the source and are kept apart here.

Columns and labels:
[1] = target: T1, FPR1 (Homo sapiens, UniProt P21462); assay: compound-induced calcium activity on FLIPR Tetra in HEK-Gqi5 cells stable expressing FPR1; assay type: cell-based; set-up: FPR1 (rel. eff.): scale not given here
T1 construct: expressed in transfected cells; host or cells: HEK-Gqi5 (HEK cells with chimeric G protein Gqi5)
T1 sequence (P21462 1-350): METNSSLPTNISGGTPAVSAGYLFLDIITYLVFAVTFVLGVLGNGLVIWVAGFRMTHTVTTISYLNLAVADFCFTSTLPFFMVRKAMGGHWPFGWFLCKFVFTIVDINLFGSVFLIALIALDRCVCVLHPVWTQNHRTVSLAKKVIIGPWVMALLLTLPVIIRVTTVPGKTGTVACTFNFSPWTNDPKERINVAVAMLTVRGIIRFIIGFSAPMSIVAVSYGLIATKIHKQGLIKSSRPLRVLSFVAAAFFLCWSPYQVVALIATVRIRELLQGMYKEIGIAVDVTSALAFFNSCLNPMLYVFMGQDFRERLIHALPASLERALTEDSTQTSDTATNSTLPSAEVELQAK
Summary of the method: (§1)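 FPRL1 tested in CHO-Gal6 cells and FPR1 in HEK-Gqi5 cells, both stably expressing receptor and plated the day before. Compound-induced calcium response measured on FLIPR Tetra at 0.61 to 10,000 nM. EC50 (nM) and efficacy reported.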

[2] = target: T2, FPRL1 (Homo sapiens, UniProt P25090); assay: compound-induced calcium activity on FLIPR Tetra in CHO-Gal6 cells stably expressing FPRL1; assay type: cell-based; conditions: for FPRL1 (rel. eff.): relative efficacy
T2 construct: expressed in transfected cells; host or cells: CHO-Gal6 (CHO cells with G alpha 16)
T2 sequence (P25090 1-351): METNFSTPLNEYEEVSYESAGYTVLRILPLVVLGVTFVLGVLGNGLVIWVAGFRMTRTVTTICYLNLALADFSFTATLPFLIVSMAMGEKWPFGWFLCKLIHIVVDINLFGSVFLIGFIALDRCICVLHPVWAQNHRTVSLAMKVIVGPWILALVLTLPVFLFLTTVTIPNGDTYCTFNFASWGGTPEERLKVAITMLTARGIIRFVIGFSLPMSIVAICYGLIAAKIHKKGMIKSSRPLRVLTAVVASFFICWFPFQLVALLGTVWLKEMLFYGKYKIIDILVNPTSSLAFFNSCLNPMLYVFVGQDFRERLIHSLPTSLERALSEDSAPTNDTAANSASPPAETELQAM
Summary of the method: as §1

[3] = class symbol NA, read-out: FPR1 EC50 (NA = Not Active)
[4] = calcium, FLIPR Tetra, tested 0.61 to 10,000 nM, read-out: FPRL1 EC50
[5] = class symbol NA, read-out: FPRL1 EC50 (NA = Not Active)

pEC50 [1, 3]	pEC50 [2, 4]	FPRL1 (rel. eff.) ([2]; calcium, FLIPR Tetra)	pEC50 [2, 5]	pEC50 ([1]; calcium, FLIPR Tetra, tested 0.61 to 10,000 nM, read-out: FPR1 EC50)	FPR1 (rel. eff.) ([1]; relative efficacy, calcium, FLIPR Tetra)	Molecule
< 5.00	5.67	0.67	–	–	–	Cc1cc(Br)cc(C)c1NC(=O)[C@@H]1[C@H](C(=O)O)[C@@H]2CC[C@H]1C21CC1 (racemic) [Compound 73, (+/−)-(1R,2S,3R,4S)-2-((4-Bromo-2,6-dimethylphenyl)carbamoyl)spiro[bicyclo[2.2.1]-heptane-7,1′-cyclopropane]-3-carboxylic Acid]
< 5.00	5.56	0.67	–	–	–	NC(=O)c1ccc(NC(=O)C2C(C(=O)O)C3CCC2C32CC2)cc1 (racemic) [Compound 74, (+/−)-(1S,2R,3S,4R)-2-((4-Carbomoylphenyl)carbamoyl)spiro[bicyclo[2.2.1]-heptan-7,1′-cyclopropane]-3-carboxylic Acid]
< 5.00	–	–	< 5.00	–	–	CC(=O)Nc1ccc(NC(=O)[C@H]2[C@@H](C(=O)O)[C@H]3CC[C@@H]2C32CC2)cc1 (racemic) [Compound 75, (+/−)-(1S,2R,3S,4R)-2-((4-Acetamidophenyl)carbamoyl)spiro[bicyclo[2.2.1]-heptan-7,1′-cyclopropane]-3-carboxylic Acid]
< 5.00	8.01	0.95	–	–	–	CNC(=O)[C@@H]1[C@H](C(=O)Nc2ccc(Br)cc2)[C@@H]2CC[C@H]1C21CC1 (racemic) [Compound 77, (+/−)-(1S,2R,3S,4R)—N^2-(4-Bromophenyl)-N^3-methylspiro[bicyclo[2.2.1]heptane-7,1′-cyclopropane]-2,3-dicarboxamide]
< 5.00	7.90	0.95	–	–	–	CCNC(=O)[C@@H]1[C@H](C(=O)Nc2ccc(Br)cc2)[C@@H]2CC[C@H]1C21CC1 (racemic) [Compound 78, (+/−)-(1S,2R,3S,4R)—N^2-(4-Bromophenyl)-N^3-ethylspiro[bicyclo[2.2.1]heptane-7,1′-cyclopropane]-2,3-dicarboxamide]
< 5.00	8.18	1.0	–	–	–	CC(C)NC(=O)[C@@H]1[C@H](C(=O)Nc2ccc(Br)cc2)[C@@H]2CC[C@H]1C21CC1 (racemic) [Compound 79, (+/−)-(1S,2R,3S,4R)—N^2-(4-Bromophenyl)-N^3-isopropylspiro[bicyclo[2.2.1]heptane-7,1′-cyclopropane]-2,3-dicarboxamide]
< 5.00	8.06	0.86	–	–	–	O=C(NCCO)[C@@H]1[C@H](C(=O)Nc2ccc(Br)cc2)[C@@H]2CC[C@H]1C21CC1 (racemic) [Compound 82, (+/−)-(1S,2R,3S,4R)—N^2-(4-Bromophenyl)-N^3-[2-hydroxyethyl]spiro[bicyclo[2.2.1]heptane-7,1′-cyclopropane]-2,3-dicarboxamide]
< 5.00	5.67	0.88	–	–	–	O=C(OCc1ccccc1)[C@@H]1[C@H](C(=O)Nc2ccc(Br)cc2)[C@@H]2CC[C@H]1C21CC1 (racemic) [Compound 85, (+/−)-(1S,2R,3S,4R)-Benzyl 2-((4-bromophenyl)carbamoyl)spiro[bicyclo[2.2.1]heptane-7,1′-cyclopropane]-3-carboxylate]
< 5.00	5.68	1.0	–	–	–	CC(C)OC(=O)[C@@H]1[C@H](C(=O)Nc2ccc(Br)cc2)[C@@H]2CC[C@H]1C21CC1 (racemic) [Compound 86, (+/−)-(1S,2R,3S,4R)-Isopropyl 2-((4-bromophenyl)carbamoyl)spiro[bicyclo[2.2.1]heptane-7,1′-cyclopropane]-3-carboxylate]
< 5.00	6.34	0.89	–	–	–	O=C(O)[C@@H]1[C@H](C(=O)NNc2ccc(Br)cc2)[C@@H]2CC[C@H]1C21CC1 (racemic) [Compound 87, (+/−)-(1S,2R,3S,4R)-2-(2-(4-Bromophenyl)hydrazinecarbonyl)spiro[bicyclo[2.2.1]heptane-7,1′-cyclopropane]-3-carboxylic Acid]
< 5.00	6.39	0.94	–	–	–	CN(C(=O)[C@H]1[C@@H](C(=O)O)[C@H]2CC[C@@H]1C21CC1)c1ccc(Br)cc1 (racemic) [Compound 88, (+/−)-(1S,2R,3S,4R)-2-((4-Bromophenyl)(methyl)carbamoyl)spiro[bicyclo[2.2.1]heptane-7,1′-cyclopropane]-3-carboxylate]
< 5.00	5.96	0.82	–	–	–	N#C[C@@H]1[C@H](C(=O)Nc2ccc(Br)cc2)[C@@H]2CC[C@H]1C21CC1 (racemic) [Compound 89, (+/−)-(1S,2R,3S,4R)—N-(4-Bromophenyl)-3-cyanospiro[bicyclo[2.2.1]heptane-7,1′-cyclopropane]-2-carboxamide]
< 5.00	–	–	< 5.00	–	–	O=C1C2C(C(O)N1c1ccc(Br)cc1)C1CCC2C12CC2 (racemic) [Compound 91, (+/−)-(3aR,4S,7R,7aS)-2-(4-Bromophenyl)-1-hydroxyhexahydro-1H-spiro[4,7-methanoisoindole-8,1′-cyclopropane]-3(2H)-one]
< 5.00	5.36	0.5	–	–	–	O=C(Nc1ccc(Br)cc1)[C@H]1[C@@H](C=NO)[C@H]2CC[C@@H]1C21CC1 (racemic) [Compound 92, (+/−)-(1S,2R,3S,4R)—N-(4-Bromophenyl)-3-((hydroxyimino)methyl)spiro[bicyclo[2.2.1]heptane-7,1′-cyclopropane]-2-carboxamide]
< 5.00	5.24	0.58	–	–	–	N=C[C@@H]1[C@H](C(=O)Nc2ccccc2)[C@@H]2CC[C@H]1C21CC1 (racemic) [Compound 93, (+/−)-(1S,2R,3S,4R)-3-(Iminomethyl)-N-phenylspiro[bicyclo[2.2.1]heptane-7,1′-cyclopropane]-2-carboxamide]
< 5.00	5.55	0.49	–	–	–	O=C(Nc1ccccc1)[C@H]1[C@@H](C=NO)[C@H]2CC[C@@H]1C21CC1 (racemic) [Compound 94, (+/−)-(1S,2R,3S,4R)-3-((Hydroxyimino)methyl)-N-phenylspiro[bicyclo[2.2.1]heptane-7,1′-cyclopropane]-2-carboxamide]
–	> 9.00	0.98	–	5.66	0.76	O=C(O)C1C(C(=O)Nc2ccc(Br)cc2)C2CCC1C21CC1 (single isomer, unassigned) [Compound 10B]
< 5.00	6.22	0.86	–	–	–	CS(=O)(=O)c1ccc(NC(=O)[C@H]2[C@@H](C(=O)O)[C@H]3CC[C@@H]2C32CC2)cc1 [Compound 45, (1R,2S,3R,4S)-3-((4-(Methylsulfonyl)phenyl)carbamoyl)spiro[bicyclo[2.2.1]heptane-7,1′-cyclopropane]-2-carboxylic Acid]
< 5.00	6.84	1.0	–	–	–	O=C(O)C1=C(C(=O)Nc2ccc(Br)cc2)C2CCC1CC2 [Compound 60, (1s,4s)-3-((4-Bromophenyl)carbamoyl)bicyclo[2.2.2]oct-2-ene-2-carboxylic Acid]
< 5.00	7.25	0.97	–	–	–	(+/−)-(1S,2R,3S,4R)—N^2-(4-Bromophenyl)-N^3-methoxyspiro[bicyclo[2.2.1]heptane-7,1′-cyclopropane]-2,3-dicarboxamide [Compound 80]
